Square brackets hold non-standard residues; d marks the D form. Peptide text beside a SMILES is read from it. * marks the point of attachment. Ala(6-iPr-benzothiazol-2-yl) = CC(C)c1ccc2nc(C[C@H](N)C(=O)O)sc2c1; Gly(piperidin-4-yl) = N[C@H](C(=O)O)C1CCNCC1; 2Nal = N[C@@H](Cc1ccc2ccccc2c1)C(=O)O; Gly(4-THP) = N[C@H](C(=O)O)C1CCOCC1; Cyclopropanecarbonyl = O=C(C1CC1)*; Isobutyryl = CC(C)C(=O)*; NHBn = c1ccc(CN*)cc1; Propionyl = CCC(=O)*; For = O=C*
target: DCN1 (Homo sapiens (Human), UniProt Q96GG9); assay: Competitive FP binding assay; conditions: bounds given in μM; read-out: Binding affinity to DCN1 (IC50)
Experimental: Competitive FP Binding Assay
The Fluorescence Polarization (FP) competitive binding assays were performed to accurately determine the binding affinities of our DCN1 inhibitors. […] Serial dilutions of proteins were mixed with 46 to a final volume of 200 μl in the assay buffer (100 mM phosphate buffer, pH=6.5, with 0.02% Tween-20 and 2% DMSO). Final probe concentration was 5 nM for both assays. Plates were incubated at room temperature for 30 minutes with gentle shaking to assure equilibrium.
Pure proteins were derived from the same expression and purification protocols. Plasmids were transformed into Rosetta2 cells, the cells were grown in Terrific Broth at 37° C. to an O.D.600>1.0 and induced with 0.4 mM Isopropyl (3-D-1-thiogalactopyranoside overnight at 20° C. The pelleted cells were resuspended in lysis buffer containing 25 mM Tris-HCl, pH 7.5, 200 mM NaCl and protease inhibitors, sonicated and centrifuged at 34,000×g for 45 minutes to remove debris. Cleared lysate was incubated with Ni-NTA resin (Qiagen) prewashed with lysis buffer, for 1 hr at 4° C. The matrix was loaded into a column then washed with 25 mM Tris-HCl, pH 7.5, 200 mM NaCl and 10 mM imidazole. Protein was eluted with 25 mM Tris-HCl, pH 7.5, 200 mM NaCl and 300 mM imidazole, concentrated and applied to a Superdex 75 (GE Healthcare) column pre-equilibrated with 25 mM Tris pH 7.5, 200 mM NaCl and 1 mM DTT. For DCN2-5, the N-terminal His6 tag was removed prior to gel filtration. Tag removal was achieved through incubation with TEV protease during overnight dialysis against 25 mM Tris pH 7.5, 200 mM NaCl and 1 mM DTT and a second Ni-NTA column. DCN2-5 proteins were stored at −80° C. in 1 mg/mL fractions containing 5% glycerol. The uncleaved DCN1 protein was stored at −80° C. without glycerol.

Chain of DCN1 (Q96GG9 58-259): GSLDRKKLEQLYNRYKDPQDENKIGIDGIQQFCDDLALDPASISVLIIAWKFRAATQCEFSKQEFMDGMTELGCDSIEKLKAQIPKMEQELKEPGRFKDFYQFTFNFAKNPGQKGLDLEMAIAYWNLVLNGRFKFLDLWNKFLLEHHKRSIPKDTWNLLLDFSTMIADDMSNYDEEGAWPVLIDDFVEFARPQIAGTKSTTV

Structure (SMILES)	IC50 [µM]
CCC(=O)N[C@@H](Cc1nc2ccc(C(C)C)cc2s1)C(=O)N[C@H](C(=O)N[C@@H](CCCCN)C(=O)N[C@@H](CC(C)C)C(N)=O)C1CCNCC1 [Example 288] (Propionyl-[Ala(6-iPr-benzothiazol-2-yl)][Gly(piperidin-4-yl)]KL-NH2)	> 10
CCC(=O)N[C@H](CNC(=O)C1(N)CCC(C)(C)CC1)Cc1nc2ccc(C(C)C)cc2s1 [Example 269]	> 10
CCC(=O)N[C@H](Cc1nc2ccc(Cl)cc2s1)C(=O)N[C@H](C(=O)N[C@@H](CCCCN)C(=O)N[C@@H]1CCOc2ccccc21)C1CCOCC1 [Example 199]	> 10
CCC(=O)N[C@@H](Cc1nc2ccc(C(C)C)cc2s1)C(=O)N[C@@H](CNC(=O)CCN1CCOCC1)Cc1ccccc1 (stereo in doubt) [Example 94]	> 10
CCC(=O)N[C@@H](Cc1ccc2ccccc2c1)C(=O)N[C@H](C(=O)N[C@@H](CN(C)C)C(=O)NC(c1ccc(F)cc1)c1ccc(F)cc1)C1CCCC1 [Example 139]	> 10
CCC(=O)N[C@@H](Cc1ccc2ccccc2c1)C(=O)N[C@H](C(=O)N[C@@H](CCCCN)C(=O)N[C@H]1CNCc2ccccc21)C1CCCC1 [Example 159]	> 3
CCC(=O)N[C@H](CNC(=O)[C@H]1CCCCN1)Cc1nc2ccc(C(C)C)cc2s1 [Example 270]	> 10
CCC(=O)N[C@@H](Cc1ccccn1)C(=O)N[C@H](C(=O)N[C@@H](CCCCN)C(=O)NC(c1ccccc1)c1ccccc1)[C@@H](C)CC [Example 132]	> 10
CCC(=O)N[C@@H](Cc1nc(C)c(-c2cccc(C#N)c2)s1)C(=O)N[C@H](CN)Cc1ccccc1 [Example 231]	> 10

same assay, conditions: read-out: Binding affinity to DCN1 (IC50 (nM))

Structure (SMILES)	IC50 [µM]
CCC(=O)N[C@@H](Cc1ccc2ccccc2c1)C(=O)N[C@H](C(=O)N[C@@H](CCCCN)C(=O)N[C@@H](c1ccccc1)c1cn(CCN)nn1)C1CCCC1 [Example 161]	0.943
CCC(=O)N[C@H](CNC(=O)c1ccccn1)Cc1nc2ccc(Cl)cc2s1 [Example 256]	2.14
CCC(=O)N[C@@H](Cc1nc2ccc(C)cc2s1)C(=O)N[C@H](C(=O)N[C@@H](CCCCN)C(=O)N[C@@H]1CCOc2ccccc21)C(C)(C)O [Example 182]	0.375
CCC(=O)N[C@@H](Cc1nc2ccc(Cl)cc2s1)C(=O)N[C@H](CNC(=O)[C@@H](C)CN1CCOCC1)Cc1ccccc1 [Example 227]	0.471
CCC(=O)N[C@@H](Cc1ccc2ccccc2c1)C(=O)N[C@H](C(=O)N[C@@H](CCCCN)C(=O)NCc1ccccc1)[C@@H](C)CC [Example 10] (Propionyl-[2Nal]-Ile-Lys-NHBn)	3.9
CCC(=O)N[C@@H](Cc1nc2ccc(Cl)cc2s1)C(=O)N[C@H](C(=O)N[C@@H](CCCCN)C(=O)N[C@@H]1CNCc2ccccc21)C1CCOCC1 [Example 43]	0.0843
CC[C@H](C)[C@H](NC(=O)[C@H](Cc1nc2ccc(C(C)C)cc2s1)NC(=O)C1CC1)C(=O)N[C@@H](CCCCN)C(=O)N[C@@H](CC(C)C)C(N)=O [Example 274] (Cyclopropanecarbonyl-[Ala(6-iPr-benzothiazol-2-yl)]IKL-NH2)	0.0825
CCC(=O)N[C@H](CNC(=O)[C@@H]1CCCCN1)Cc1nc2ccc(C(C)C)cc2s1 [Example 118]	3.11
CCC(=O)N[C@@H](Cc1nc2ccc(Cl)cc2s1)C(=O)N[C@@H](C[C@H]1CC[C@H](CN)CC1)C(=O)N[C@@H](CCCCN)C(=O)N[C@@H]1CCOc2ccccc21 [Example 200]	0.203
CCC(=O)N[C@@H](Cc1nc2ccc(Cl)cc2s1)C(=O)N[C@H](C(=O)N[C@@H](CCCCN)C(=O)N[C@@H]1CCCc2ccccc21)C1CCCC1 [Example 32]	0.157
CCC(=O)N[C@@H](Cc1ccc2ccccc2c1)C(=O)N[C@H](C(=O)N[C@@H](CCCCN)C(=O)N[C@@H]1CCOc2ccccc21)C1CCCC1 [Example 149]	0.378
CCC(=O)N[C@@H](Cc1nc2ccc(C)cc2s1)C(=O)N[C@@H](CC1CCNCC1)C(=O)N[C@@H](CCCCN)C(=O)N[C@@H]1CCOc2ccccc21 [Example 178]	0.596
CCC(=O)N[C@@H](Cc1nc2ccc(C(C)C)cc2s1)C(=O)N[C@H](CNC(=O)C1CN(C)C1)C1CCCCC1 [Example 69]	0.0716
CC[C@H](C)[C@H](NC(=O)[C@H](Cc1nc2cc(Cl)ccc2s1)NC(C)=O)C(=O)N[C@@H](CCCCN)C(=O)N[C@@H](CC(C)C)C(N)=O [Example 3, (S)-2-((2S,3 S)-2-((S)-2-acetamido-3-(5-chlorobenzo[d]thiazol-2-yl)propanamido)-3-methylpentanamido)-6-amino-N—((S)-1-amino-4-methyl-1-oxopentan-2-yl)hexanamide]	0.0092 ± 0.0014
CCC(=O)N[C@@H](Cc1nc2ccc(Br)cc2s1)C(=O)N[C@H](CN)Cc1ccccc1 [Example 222]	0.858
CCC(=O)N[C@@H](Cc1nc2ccc(Cl)cc2s1)C(=O)N[C@H](CN)Cc1ccccc1 [Example 86]	0.491
CCC(=O)N[C@@H](Cc1nc2ccc(Cl)cc2s1)C(=O)N[C@@H](Cc1ccncc1)C(=O)N[C@@H](CCCCN)C(=O)N[C@@H]1CCOc2ccccc21 [Example 203]	0.282
CCCC(=O)N[C@@H](Cc1nc2ccc(C(C)C)cc2s1)C(=O)N[C@H](CN)[C@@H](C)CC [Example 51, N—((S)-1-(((2S,3 S)-1-amino-3-methylpentan-2-yl)amino)-3-(6-isopropylbenzo[d]thiazol-2-yl)-1-oxopropan-2-yl)butyramide]	0.944 ± 0.176

Structure (SMILES)	IC50 [µM]
CCC(=O)N[C@@H](Cc1nc2ccccc2s1)C(=O)N[C@H](C(=O)N[C@@H](CCCCN)C(=O)NC(c1ccccc1)c1ccccc1)C1CCCC1 [Example 25]	0.397
CCC(=O)N[C@@H](Cc1nc2ccc(C)cc2s1)C(=O)N[C@@H](Cc1cccnc1)C(=O)N[C@@H](CCCCN)C(=O)N[C@@H]1CCOc2ccccc21 [Example 183]	0.165
CC(C)c1ccc2nc(C[C@H](NC(=O)C3CC3)C(=O)N[C@H](CN)C3CCCCC3)sc2c1 [Example 262]	0.155
CCC(=O)N[C@@H](Cc1nc2ccc(CC)cc2o1)C(=O)N[C@H](C(=O)N[C@@H](CCCCN)C(=O)N[C@@H]1CCOc2ccccc21)C1CCOCC1 [Example 196]	0.0711
CC[C@H](C)[C@H](NC(=O)[C@H](Cc1nc2ccc(C(C)C)cc2s1)NC=O)C(=O)N[C@@H](CCCCN)C(=O)N[C@@H](CC(C)C)C(N)=O [Example 271] (For-[Ala(6-iPr-benzothiazol-2-yl)]IKL-NH2)	0.122
CCC(=O)N[C@@H](Cc1nc2ccc(Cl)cc2s1)C(=O)N[C@H](C(=O)N[C@@H](CCCCN)C(=O)N[C@@H]1CCOc2cc(Cl)ccc21)C1CCCC1 [Example 171]	0.168
CCC(=O)N[C@@H](Cc1nc2ccc(Cl)cc2s1)C(=O)N[C@H](CN)C1CCOCC1 [Example 219]	1.56
CCC(=O)N[C@@H](Cc1nc2ccc(C(C)C)cc2s1)C(=O)N[C@H](C(=O)N[C@@H](CCCCN)C(=O)N[C@@H](CC(C)C)C(N)=O)C1CCOCC1 [Example 2287] (Propionyl-[Ala(6-iPr-benzothiazol-2-yl)][Gly(4-THP)]KL-NH2)	0.28
CCC(=O)N[C@@H](Cc1nc2ccc(Cl)cc2o1)C(=O)N[C@H](C(=O)N[C@@H](CCCCN)C(=O)NC(c1ccccc1)c1ccccc1)[C@@H](C)CC [Example 156]	0.194
CCC(=O)N[C@@H](Cc1ccc2ccccc2c1)C(=O)N[C@H](C(=O)N[C@@H](CCCCN)C(=O)N[C@@H]1CCOc2ccc(Cl)cc21)C1CCCC1 [Example 164]	0.394
CCC(=O)N[C@@H](Cc1nc2ccc(Cl)cc2s1)C(=O)N[C@H](CNC(=O)CCN1CCOCC1)Cc1ccccc1 [Example 92]	0.244
CCC(=O)N[C@H](CNC(=O)C1(N)CCCCCCC1)Cc1nc2ccc(C(C)C)cc2s1 [Example 116]	2.2
CCC(=O)N[C@@H](Cc1nc2ccc(C(C)C)cc2s1)C(=O)N[C@@H](Cc1ccccc1)C(=O)N[C@@H](CCCCN)C(=O)N[C@@H](CC(C)C)C(N)=O [Example 290] (Propionyl-[Ala(6-iPr-benzothiazol-2-yl)]FKL-NH2)	0.0556
CCC(=O)N[C@H](CNC(=O)Cc1ccccn1)Cc1nc2ccc(Cl)cc2s1 [Example 257]	3.45
CC[C@H](C)[C@H](NC(=O)[C@H](Cc1nc2ccc(C(C)C)cc2s1)NC(=O)C(C)C)C(=O)N[C@@H](CCCCN)C(=O)N[C@@H](CC(C)C)C(N)=O [Example 275] (Isobutyryl-[Ala(6-iPr-benzothiazol-2-yl)]IKL-NH2)	0.0778
CCC(=O)N[C@@H](Cc1nc2ccc(CC)cc2o1)C(=O)N[C@H](C(=O)N[C@@H](CCCCN)C(=O)N[C@@H]1CCOc2ccccc21)C1CCCC1 [Example 195]	0.12
CCC(=O)N[C@@H](Cc1nc2ccc(Cl)cc2s1)C(=O)N[C@H](C(=O)N[C@@H](CCCCN(C)C)C(=O)N[C@@H]1CCOc2ccccc21)C1CCCC1 [Example 34]	0.0179

— patent publication US12012467B2, “Small molecule DCN1 inhibitors and therapeutic methods using the same” (THE REGENTS OF THE UNIVERSITY OF MICHIGAN, priority 2017, dated 2024)
